Reference: patent publication EP3876933B1, “NEUTROPHIL INFLAMMATION INHIBITOR AND USES THEREOF” (Chang Gung University of Science and Technology, priority 2018, dated 2020)

Legend:
[1] = tested on: human neutrophils; experiment: Superoxide anion (O2˙-) generation in fMLF/CB-activated human neutrophils (SOD-inhibitable ferricytochrome c reduction); format: cell-based; details: FMLP/CB-induced human neutrophils, mean ± S.E.M. (n = 3-5); for IC50 / inhibition at 10 µM: Neutrophil; for IC50: read-out: Superoxide Anion IC50; for inhibition at 10 µM / Superoxide Anion Inhibition %: at 10 µM concentration
Description: (§1) Human neutrophils were obtained in lipopolysaccharide-free conditions by means of dextran sedimentation and Ficoll centrifugation.
O2˙^- production was determined based on the SOD-inhibitable reduction of ferricytochrome c. Briefly, neutrophils (6 × 10^5/mL) were treated with a candidate compound at 37 °C at various concentrations (0.001 to 10 µM) for 5 min after being supplementing with 0.5 mg/mL ferricytochrome c and 1 mM Ca^2+. Cells were then activated with fMLF (0.1 µM) for 10 min in the pre-process of cytochalasin B (CB, 1 µg/mL) for 3 min. Changes in absorbance with the reduction of ferricytochrome c at 550 nm were continuously monitored in a double-beam, six-cell positioner spectrophotometer with constant stirring (Hitachi U-3010, Tokyo, Japan). Calculations were based on the differences in the reactions with and without SOD (100 U ml^-1) divided by the extinction coefficient for the reduction of ferricytochrome c (ε = 21.1 mM^-1/10 mm).

[2] = tested on: human neutrophils; experiment: Elastase release in fMLF/CB-activated human neutrophils (Methoxysuccinyl-Ala-Ala-Pro-Val-p-nitroanilide substrate); format: cell-based; details: Neutrophil, FMLP/CB-induced human neutrophils, mean ± S.E.M. (n = 3-5); for IC50: read-out: Elastase Release IC50; for inhibition at 10 µM: at 10 µM concentration
Description: as §1
Methoxysuccinyl-Ala-Ala-Pro-Val-p-nitroanilide was employed as the elastase substrate for the determination of elastase release. Briefly, after supplementation with Methoxysuccinyl-Ala-Ala-Pro-Val-p-nitroanilide (100 µM), neutrophils (6 × 10^5/mL) were equilibrated at 37 °C for 2 min and incubated with a candidate compound at various concentrations for 5 min. Cells were then activated with fMLF (0.1 µM) for 10 min in the pre-process of CB (0.5 µg/mL) for 3 min, and changes in absorbance at 405 nm were continuously monitored to evaluate elastase release. Results are expressed as the percentage of elastase release in the drug-free control group, DMSO.

Row | Structure (SMILES) | IC50 [1] [µM] | inhibition at 10 µM [1] [%] | IC50 [2] [µM] | inhibition at 10 µM [2] [%] | Superoxide Anion Inhibition % [1]
1 | Nc1noc2c1c(Nc1ccccc1O)nc1ccccc12 [Compound 28, 4-(2-Hydroxyanilino)isoxazolo[4,5-c]quinolin-3-amine] | 4.54 ± 1.18 | 91 ± 1.69 | 5.77 ± 1.14 | 77.6 ± 4.52 | 
2 | Nc1noc2c1c(Nc1ccccc1)nc1ccccc12 [Compound 19, 4-Anilinoisoxazolo[4,5-c]quinolin-3-amine] | > 10 | 43.7 ± 6.43 | > 10 | 5.81 ± 5.22 | 
3 | Cn1nc(N)c2c(Nc3ccccc3S)nc3ccccc3c21 [Compound 16, 2-[(3-amino-1-methyl-1H-pyrazolo[4,3-c]quinolin-4-yl)amino]benzenethiol] | > 10 | 4.05 ± 2.95 | > 10 | -3.34 ± 1.78 | 
4 | Nc1noc2c1c(Nc1ccc(Cl)cc1)nc1ccccc12 [Compound 32, 4-(4-Chloroanilino)isoxazolo[4,5-c]quinolin-3-amine] | > 10 | 38.6 ± 2.3 | > 10 | 3.69 ± 3.42 | 
5 | COc1ccccc1Nc1nc2ccccc2c2c1c(N)nn2C [Compound 5, 4-(2-Methoxyanilino)-1-methyl-1H-pyrazolo[4,3-c]quinolin-3-amine] | 1.37 ± 0.08 | 90.1 ± 3.38 | 4.65 ± 2.57 | 66 ± 6.51 | 
6 | Cn1nc(N)c2c(Nc3ccc(F)cc3)nc3ccccc3c21 [Compound 4, 4-(4-Fluoroanilino)-1-methyl-1H-pyrazolo[4,3-c]quinolin-3-amine] | 1.44 ± 0.22 | 91.2 ± 4.43 | 5.5 ± 1.5 | 68 ± 6.8 | 
7 | Cn1nc(N)c2c(Nc3ccccc3)nc3ccccc3c21 [Compound 3, 4-Anilino-l-methyl-1H-pyrazolo[4,3-c]quinolin-3-amine] | 2.39 ± 0.63 | 93.9 ± 6.32 | 4.09 ± 1.02 | 80.5 ± 2.57 | 
8 | COc1cccc(Nc2nc3ccccc3c3c2c(N)nn3C)c1 [Compound 6, 4-(3-Methoxyanilino)-1-methyl-1H-pyrazolo[4,3-c]quinolin-3-amine] | > 10 | 27.5 ± 5.47 | > 10 | 33.4 ± 6.04 | 
9 | COc1ccc(Nc2nc3ccccc3c3c2c(N)nn3C)cc1 [Compound 7, 4-(4-Methoxyanilino)-1-methyl-1H-pyrazolo[4,3-c]quinolin-3-amine] | 0.51 ± 0.17 | 99.3 ± 1.51 | 3.77 ± 0.71 | 96.7 ± 6.56 | 
10 | COc1cc(Nc2nc3ccccc3c3onc(N)c23)cc(OC)c1OC [Compound 24, 4-(3,4,5-Trimethoxyanilino)isoxazolo[4,5-c]quinolin-3-amine] | > 10 | 17.1 ± 3.77 | > 10 | -10.6 ± 3.81 | 
11 | Cn1nc(N)c2c(Nc3ccc(C(=O)O)cc3)nc3ccccc3c21 [Compound 15, 4-[(3-Amino-1-methyl-1H-pyrazolo[4,3-c]quinolin-4-yl)amino]benzoic acid] | 1.83 | 82.9 ± 2.86 | 3.68 ± 0.42 | 79.4 ± 1.91 | 
12 | COc1ccc(Nc2nc3ccccc3c3onc(N)c23)cc1 [Compound 23, 4-(4-Methoxyanilino)isoxazolo[4,5-c]quinolin-3-amine] | 8.59 ± 0.29 | 59.1 ± 2.03 | > 10 | -9.67 ± 3.44 | 
13 | CSc1ccc(Nc2nc3ccccc3c3onc(N)c23)cc1 [Compound 25, 4-(4-Methylthioanilino)isoxazolo[4,5-c]quinolin-3-amine] |  |  | > 10 | 18.1 ± 3.97 | enhanced
14 | COc1ccccc1Nc1nc2ccccc2c2onc(N)c12 [Compound 21, 4-(2-Methoxyanilino)isoxazolo[4,5-c]quinolin-3-amine] | > 10 | 32.7 ± 4.92 | > 10 | -8.32 ± 2.23 | 
15 | CC(=O)c1ccc(Nc2nc3ccccc3c3onc(N)c23)cc1 [Compound 27, 4-(4-Acetoylanilino)isoxazolo[4,5-c]quinolin-3-amine] | > 10 | 37.4 ± 5.43 | > 10 | -9.53 ± 5.26 | 
16 | Cn1nc(N)c2c(Nc3ccc(Cl)cc3)nc3ccccc3c21 [Compound 17, 4-(4-Chloroanilino)-1-methyl-1H-pyrazolo[4,3-c]quinolin-3-amine] | 3.49 ± 1.25 | 82.8 ± 5.36 | 5.28 ± 0.66 | 75.8 ± 6.64 | 
17 | COc1cccc(Nc2nc3ccccc3c3onc(N)c23)c1 [Compound 22, 4-(3-Methoxyanilino)isoxazolo[4,5-c]quinolin-3-amine] | 6.53 ± 0.9 | 69.2 ± 3.14 | > 10 | -3.61 ± 0.98 | 
18 | CSc1ccc(Nc2nc3ccccc3c3c2c(N)nn3C)cc1 [Compound 9, 1-Methyl-4-(4-methylthioanilino)-1H-pyrazolo[4,3-c]quinolin-3-amine] | > 10 | 47.7 ± 3.32 | > 10 | 20.8 ± 3.75 | 
19 | CC(=O)c1ccc(Nc2nc3ccccc3c3c2c(N)nn3C)cc1 [Compound 10, 4-(4-Acetoylanilino)-1-methyl-1H-pyrazolo[4,3-c]quinolin-3-amine] | 1.58 | 85.1 ± 1.66 | 4.63 ± 1.1 | 57.2 | 
20 | Cn1nc(N)c2c(Nc3ccccc3O)nc3ccccc3c21 [Compound 11, 4-(2-Hydroxyanilino)-1-methyl-1H-pyrazolo[4,3-c]quinolin-3-amine] | 0.73 ± 0.23 | 93.5 ± 1.75 | 2.24 ± 0.91 | 101 ± 4.5 | 
21 | Cn1nc(N)c2c(Nc3cccc(O)c3)nc3ccccc3c21 [Compound 12, 4-(3-Hydroxyanilino)-1-methyl-1H-pyrazolo[4,3-c]quinolin-3-amine] | 1.89 ± 0.69 | 93.2 ± 3.66 | 4.62 ± 1.74 | 94.4 ± 8.34 | 
22 | CC(=O)c1cccc(Nc2nc3ccccc3c3onc(N)c23)c1 [Compound 26, 4-(3-Acetoylanilino)isoxazolo[4,5-c]quinolin-3-amine] | 2.88 ± 0.27 | 76.2 | > 10 | -4.55 ± 5.83 | 
23 | Cn1nc(N)c2c(Nc3ccc(C(F)(F)F)cc3)nc3ccccc3c21 [Compound 14, 4-(4-Trifluoromethylanilino)-1-methyl-1H-pyrazolo[4,3-c]quinolin-3-amine] | 4.56 ± 0.83 | 63.1 ± 2.51 | > 10 | 37.6 ± 6.22 | 
24 | Cc1ccc(Nc2nc3ccccc3c3onc(N)c23)cc1 [Compound 33, 4-(4-Methylanilino)isoxazolo[4,5-c]quinolin-3-amine] |  |  | 7.24 ± 0.72 | 68 ± 5.23 | enhanced
25 | Nc1noc2c1c(Nc1ccc(C(=O)O)cc1)nc1ccccc12 [Compound 31, 4-[(3-aminoisoxazolo[4,5-c]quinolin-4-yl)amino]benzoic acid] | > 10 | 7.44 ± 4.23 | > 10 | -1.4 ± 3.53 | 
26 | Nc1noc2c1c(Nc1ccc(F)cc1)nc1ccccc12 [Compound 20, 4-(4-Fluoroanilino)isoxazolo[4,5-c]quinolin-3-amine] | 6.16 ± 1.18 | 63.2 ± 7.76 | > 10 | 10.7 ± 4 | 
27 | Cc1ccc(Nc2nc3ccccc3c3c2c(N)nn3C)cc1 [Compound 18, 4-(4-Methylanilino)-1-methyl-1H-pyrazolo[4,3-c]quinolin-3-amine] | 5.21 ± 1.9 | 69.7 ± 7.05 | > 10 | 39.7 ± 3.83 | 
28 | Nc1noc2c1c(Nc1ccc(C(F)(F)F)cc1)nc1ccccc12 [Compound 30, 4-(4-Trifluoromethylanilino)isoxazolo[4,5-c]quinolin-3-amine] |  |  | 6.23 ± 0.52 | 81.5 ± 6.97 | enhanced
29 | COc1cc(Nc2nc3ccccc3c3c2c(N)nn3C)cc(OC)c1OC [Compound 8, 4-(3,4,5-Trimethoxyanilino)-1-methyl-1H-pyrazolo[4,3-c]quinolin-3-amine] | 0.8 ± 0.09 | 98.2 ± 2.41 | 3.25 ± 0.08 | 89.8 ± 6.51 | 
30 | Nc1noc2c1c(Nc1ccc(O)cc1)nc1ccccc12 [Compound 29, 4-(4-Hydroxyanilino)isoxazolo[4,5-c]quinolin-3-amine] | 0.65 ± 0.2 | 91.1 ± 0.38 | > 10 | 29.9 ± 6.66 | 
